Source: paper PMC10379611 (International Journal of Molecular Sciences, 2023)
“Also recorded” adds a separate entry of the source.

What was measured:
[1] = tested on: OATP1B3; conditions: read-out: IC50 for OATP1B3; cited from earlier work
[2] = molecular target: ABCB1 (Homo sapiens, UniProt P08183); assay: ABCB1 ATPase activity in Sf9 membrane vesicles; type: biochemical; parameters: purchased Solvo Biotechnology, Budapest; conditions: insect cell membrane vesicles
Procedure: (§1) ATPase activity was measured in Sf9 membrane vesicles containing the respective human ABC transporters, as described in our earlier work. For ABCG2, the cholesterol level in the vesicles was increased to the level of mammalian cell membranes to obtain full activity. In brief, membrane vesicles (5 μg protein/sample) were incubated with 3 mM Mg-ATP and various concentrations of test compounds. Background ATPase activity of membranes was determined by applying the general ABC transporter inhibitor sodium orthovanadate (1 mM). Measurements were carried out for 20 min at 37 °C. The amount of phosphate liberated from ATP was detected using a colorimetric method and a VictorX3 plate reader at 660 nm Abs. Reference activators (50 µM verapamil for ABCB1 and 1 µM quercetin for ABCG2) served as positive controls.

[3] = molecular target: T1, ABCG2 (Homo sapiens, UniProt Q9UNQ0); assay: ABCG2 ATPase activity in Sf9 membrane vesicles; type: biochemical; parameters: purchased Solvo Biotechnology, Budapest; conditions: insect cell membrane vesicles
T1 sequence (Q9UNQ0 1-655): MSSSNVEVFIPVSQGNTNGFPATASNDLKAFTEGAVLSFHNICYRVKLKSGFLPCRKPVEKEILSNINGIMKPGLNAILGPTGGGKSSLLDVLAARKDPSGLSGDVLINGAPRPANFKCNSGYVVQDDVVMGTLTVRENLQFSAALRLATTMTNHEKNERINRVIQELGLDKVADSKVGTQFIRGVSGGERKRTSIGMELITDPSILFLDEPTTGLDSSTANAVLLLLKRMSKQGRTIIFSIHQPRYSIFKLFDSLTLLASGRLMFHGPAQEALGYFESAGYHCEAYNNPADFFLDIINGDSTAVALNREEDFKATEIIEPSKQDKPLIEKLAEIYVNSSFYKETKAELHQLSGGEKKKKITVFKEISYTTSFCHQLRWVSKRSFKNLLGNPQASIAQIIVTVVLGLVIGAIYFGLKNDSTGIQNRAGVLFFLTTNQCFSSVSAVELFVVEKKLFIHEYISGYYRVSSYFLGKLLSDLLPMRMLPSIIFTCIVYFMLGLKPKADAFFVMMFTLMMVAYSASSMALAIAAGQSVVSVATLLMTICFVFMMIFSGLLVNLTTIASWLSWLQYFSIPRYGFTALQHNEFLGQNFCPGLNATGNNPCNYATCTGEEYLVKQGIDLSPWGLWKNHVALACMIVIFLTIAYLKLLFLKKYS
Procedure: as §1

[4] = molecular target: T2, ENT2 (Homo sapiens, UniProt Q14542); assay: ENT2-mediated adenosine uptake in ENT2-MDCKII cells; type: cell-based
T2 construct: expressed in transfected cells; host or cells: MDCKII (lentiviral transduction)
T2 sequence (Q14542 1-456): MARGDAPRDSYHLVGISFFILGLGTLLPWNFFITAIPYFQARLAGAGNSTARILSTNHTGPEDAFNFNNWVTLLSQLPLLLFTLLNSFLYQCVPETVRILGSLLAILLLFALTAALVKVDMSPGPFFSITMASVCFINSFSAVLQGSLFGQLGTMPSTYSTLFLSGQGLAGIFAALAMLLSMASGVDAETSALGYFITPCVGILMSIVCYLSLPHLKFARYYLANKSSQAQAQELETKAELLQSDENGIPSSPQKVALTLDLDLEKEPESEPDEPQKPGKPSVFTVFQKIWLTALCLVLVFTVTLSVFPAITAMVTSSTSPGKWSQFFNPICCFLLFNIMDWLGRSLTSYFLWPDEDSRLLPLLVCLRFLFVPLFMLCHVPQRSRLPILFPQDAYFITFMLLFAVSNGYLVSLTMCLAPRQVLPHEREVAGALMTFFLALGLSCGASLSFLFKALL
Procedure: ENT and CNT transporter interactions were investigated in transporter-overexpressing cell lines. Madin-Darby Canine Kidney II (MDCKII) cell lines overexpressing the human uptake transporters CNT1, CNT2, ENT1, and ENT2 were generated via lentiviral transduction. Cell cultures were maintained in Dulbecco’s modified Eagle’s medium (DMEM) and 4500 mg/L of glucose supplemented with GlutaMax^TM, 10% v/v fetal bovine serum (FBS), 100 units/mL penicillin, and 100 µg/mL streptomycin (all from Gibco/ThermoFisher, Waltham, MA, USA) at 37 °C in 5% CO2 at 95% humidity. For uptake inhibition assays, transporter-expressing cells and mock-transduced control cells were seeded on 96-well tissue culture plates at a density of 1 × 10^5 cells/well. […] To determine the amounts of accumulated radiolabeled substrates, cell lysates mixed with a liquid scintillation cocktail were measured with a MicroBeta2 microplate counter (PerkinElmer, Singapore).
Transporter-specific accumulation of the probe substrate was calculated using the following formula: ACCSpec = ACCTRP − ACCMock, where ACCTRP is the accumulation of the probe in transporter-expressing cells and ACCMock is the accumulation of the probe in control cells. Relative transporter-specific accumulation values were calculated as percentages of the control value (with vehicle only).

ABCB1, sequence (P08183 whole entry): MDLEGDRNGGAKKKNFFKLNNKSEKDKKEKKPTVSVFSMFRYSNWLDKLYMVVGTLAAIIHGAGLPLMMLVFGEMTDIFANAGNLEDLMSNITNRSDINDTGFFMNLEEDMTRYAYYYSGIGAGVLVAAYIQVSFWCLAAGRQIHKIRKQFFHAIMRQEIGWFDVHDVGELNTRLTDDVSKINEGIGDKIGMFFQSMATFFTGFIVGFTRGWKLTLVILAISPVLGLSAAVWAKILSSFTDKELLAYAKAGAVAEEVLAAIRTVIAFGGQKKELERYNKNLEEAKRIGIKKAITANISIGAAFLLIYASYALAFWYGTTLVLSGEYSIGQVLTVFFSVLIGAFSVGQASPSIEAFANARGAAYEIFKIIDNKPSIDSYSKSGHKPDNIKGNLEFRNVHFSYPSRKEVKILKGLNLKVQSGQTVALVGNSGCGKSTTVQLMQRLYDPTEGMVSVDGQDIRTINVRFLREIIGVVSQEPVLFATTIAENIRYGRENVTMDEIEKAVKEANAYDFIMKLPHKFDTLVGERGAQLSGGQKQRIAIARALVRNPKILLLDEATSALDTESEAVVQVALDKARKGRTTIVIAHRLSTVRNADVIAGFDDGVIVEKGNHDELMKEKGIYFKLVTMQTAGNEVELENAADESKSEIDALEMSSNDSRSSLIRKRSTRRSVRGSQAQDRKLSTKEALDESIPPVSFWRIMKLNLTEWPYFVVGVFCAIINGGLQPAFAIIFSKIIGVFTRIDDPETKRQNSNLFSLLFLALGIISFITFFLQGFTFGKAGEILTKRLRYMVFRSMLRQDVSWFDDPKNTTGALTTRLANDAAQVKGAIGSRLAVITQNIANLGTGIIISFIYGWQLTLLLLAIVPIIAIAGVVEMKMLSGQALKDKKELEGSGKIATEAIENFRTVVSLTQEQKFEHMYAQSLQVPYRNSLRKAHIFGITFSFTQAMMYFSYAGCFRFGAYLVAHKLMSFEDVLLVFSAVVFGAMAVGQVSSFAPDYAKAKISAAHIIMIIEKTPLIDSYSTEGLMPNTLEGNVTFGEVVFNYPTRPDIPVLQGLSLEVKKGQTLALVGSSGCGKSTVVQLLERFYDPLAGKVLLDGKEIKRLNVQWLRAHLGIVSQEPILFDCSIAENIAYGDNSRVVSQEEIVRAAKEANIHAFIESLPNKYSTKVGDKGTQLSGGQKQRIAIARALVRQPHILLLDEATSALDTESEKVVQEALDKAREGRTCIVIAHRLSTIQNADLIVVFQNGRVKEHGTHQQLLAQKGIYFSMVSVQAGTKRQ

SMILES	IC50 [1] [µM]	effect on transport-coupled ATPase activity of ABCB1 [2]	effect on ATPase activity of ABCG2 [3]	inhibition of adenosine uptake by ENT2 [4]
CC(C)(C)[C@H](NC(=O)C(F)(F)F)C(=O)N1C[C@H]2[C@@H]([C@H]1C(=O)N[C@H](C#N)C[C@@H]1CCNC1=O)C2(C)C [Nirmatrelvir]	> 100	significantly increased; also recorded: stimulated	no such effect	
CC(C)C(=O)OC[C@H]1O[C@@H](n2ccc(NO)nc2=O)[C@H](O)[C@@H]1O [EIDD-2801, Molnupiravir]				only mildly inhibited
